Source: patent US9708314B2, “Heterocyclic amide compound” (NISSAN CHEMICAL INDUSTRIES, LTD., priority 2013, dated 2017)

Tests used:
Assay type in all cases: in vivo
Cyperus difformis = test: Test Example 3: herbicidal effect by application to foliage (Wagner pot, water depth 0.1-0.5 cm); details: Nineteenth Table; application to foliage; application herbicide amount 320 g/ha
Method in brief: (§1)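 Seeds were sown in alluvial soil in Wagner pots, grown for 14 days at 25–30 °C, then sprayed uniformly on foliage with the emulsified compound diluted to a given rate per hectare. Injury was graded three weeks after treatment from 0 (≤5%) to 5 (≥90%).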

[1] = system: Echinochloa crus-galli var. crus-galli; test: as above; details: Nineteenth Table; application to foliage; application herbicide amount 320 g/ha
Method in brief: as §1

Leptochloa chinensis = test: as above; details: Nineteenth Table; application to foliage; application herbicide amount 320 g/ha
Method in brief: as §1

Alopecurus myosuroides = test: Test Example 4: herbicidal effect by application to foliage (diluvial soil, plastic box); details: for J (Alopecurus myosuroides) herbicidal effect grade: foliage application
Method in brief: (§2)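 Read-out is a 0–5 visual grade of herbicidal ratio (5: ≥90%, almost withered; 0: ≤5%) taken three weeks after treatment. Compound was applied as a diluted emulsion to stem and leaf parts of 14-day greenhouse-grown plants (25° C. to 30° C.) at rates expressed as g/ha.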

Veronica persica = test: as above; details: for R (Veronica persica) herbicidal effect grade: foliage application
Method in brief: as §2

Amaranthus retroflexus = test: as above; details: for N (Amaranthus retroflexus) herbicidal effect grade: foliage application
Method in brief: as §2

Abutilon theophrasti = test: as above; details: for M (Abutilon theophrasti) herbicidal effect grade: foliage application
Method in brief: as §2

Chenopodium album = test: as above; details: for O (Chenopodium album) herbicidal effect grade: foliage application
Method in brief: as §2

Setaria viridis = test: as above; details: for G (Setaria viridis) herbicidal effect grade: foliage application
Method in brief: as §2

Digitaria ciliaris = test: as above; details: for F (Digitaria ciliaris) herbicidal effect grade: foliage application
Method in brief: as §2

Stellaria media = test: as above; details: for P (Stellaria media) herbicidal effect grade: foliage application
Method in brief: as §2

Apera spica-venti. = test: as above; details: for L (Apera spica-venti.) herbicidal effect grade: foliage application
Method in brief: as §2

[2] = application to foliage, application herbicide amount 320 g/ha
[3] = Application herbicide amount 320 g/ha

Structure (SMILES)	E (herbicidal effect grade) (Cyperus difformis)	H (herbicidal effect grade) [1]	D (herbicidal effect grade) (Leptochloa chinensis)	J (Alopecurus myosuroides) herbicidal effect grade (Alopecurus myosuroides; [3])	R (Veronica persica) herbicidal effect grade (Veronica persica; [3])	N (Amaranthus retroflexus) herbicidal effect grade (Amaranthus retroflexus; [3])	M (Abutilon theophrasti) herbicidal effect grade (Abutilon theophrasti; [3])	O (Chenopodium album) herbicidal effect grade (Chenopodium album; [3])	G (Setaria viridis) herbicidal effect grade (Setaria viridis; [3])	F (Digitaria ciliaris) herbicidal effect grade (Digitaria ciliaris; [3])	P (Stellaria media) herbicidal effect grade (Stellaria media; [3])	L (Apera spica-venti.) herbicidal effect grade (Apera spica-venti.; [3])	further results
CCC(CC)c1nnc2c(C(=O)Nc3nnnn3C)ccc(C(F)(F)F)n12 [2-006]	5 (Herbicidal ratio of 90% or more (almost completely withered))	5 (Herbicidal ratio of 90% or more (almost completely withered))	5 (Herbicidal ratio of 90% or more (almost completely withered))										J: herbicidal effect on Alopecurus myosuroides (Alopecurus myosuroides; [2]): 2 (Herbicidal ratio of 20% or more and less than 40%); R: herbicidal effect on Veronica persica (Veronica persica; [2]): 5 (Herbicidal ratio of 90% or more (almost completely withered)); N: herbicidal effect on Amaranthus retroflexus (Amaranthus retroflexus; [2]): 5 (Herbicidal ratio of 90% or more (almost completely withered)); M: herbicidal effect on Abutilon theophrasti (Abutilon theophrasti; [2]): 5 (Herbicidal ratio of 90% or more (almost completely withered)); O: herbicidal effect on Chenopodium album (Chenopodium album; [2]): 5 (Herbicidal ratio of 90% or more (almost completely withered)); G: herbicidal effect on Setaria viridis (Setaria viridis; [2]): 5 (Herbicidal ratio of 90% or more (almost completely withered)); F: herbicidal effect on Digitaria ciliaris (Digitaria ciliaris; [2]): 5 (Herbicidal ratio of 90% or more (almost completely withered)); P: herbicidal effect on Stellaria media (Stellaria media; [2]): 5 (Herbicidal ratio of 90% or more (almost completely withered)); L: herbicidal effect on Apera spica-venti. (Apera spica-venti.; [2]): 4 (Herbicidal ratio of 70% or more and less than 90%)
Cc1nnc(NC(=O)c2ccc(C(F)(F)F)n3c(SCC4OCCO4)nnc23)o1 [1-126]	4 (Herbicidal ratio of 70% or more and less than 90%)	4 (Herbicidal ratio of 70% or more and less than 90%)	4 (Herbicidal ratio of 70% or more and less than 90%)	0 (Herbicidal ratio of 5% or less (almost no effect))	4 (Herbicidal ratio of 70% or more and less than 90%)	3 (Herbicidal ratio of 40% or more and less than 70%)	3 (Herbicidal ratio of 40% or more and less than 70%)	5 (Herbicidal ratio of 90% or more (almost completely withered))	3 (Herbicidal ratio of 40% or more and less than 70%)	4 (Herbicidal ratio of 70% or more and less than 90%)	5 (Herbicidal ratio of 90% or more (almost completely withered))	1 (Herbicidal ratio of 5% or more and less than 20%)	
CSCCNc1nnc2c(C(=O)Nc3nnc(C)o3)ccc(C(F)(F)F)n12 [1-130]	2 (Herbicidal ratio of 20% or more and less than 40%)	5 (Herbicidal ratio of 90% or more (almost completely withered))	4 (Herbicidal ratio of 70% or more and less than 90%)	1 (Herbicidal ratio of 5% or more and less than 20%)	3 (Herbicidal ratio of 40% or more and less than 70%)	3 (Herbicidal ratio of 40% or more and less than 70%)	3 (Herbicidal ratio of 40% or more and less than 70%)	5 (Herbicidal ratio of 90% or more (almost completely withered))	4 (Herbicidal ratio of 70% or more and less than 90%)	4 (Herbicidal ratio of 70% or more and less than 90%)	3 (Herbicidal ratio of 40% or more and less than 70%)	1 (Herbicidal ratio of 5% or more and less than 20%)	
COCCOCc1nnc2c(C(=O)Nc3nnco3)ccc(C(F)(F)F)n12 [1-107]	5 (Herbicidal ratio of 90% or more (almost completely withered))	5 (Herbicidal ratio of 90% or more (almost completely withered))	5 (Herbicidal ratio of 90% or more (almost completely withered))	3 (Herbicidal ratio of 40% or more and less than 70%)	5 (Herbicidal ratio of 90% or more (almost completely withered))	5 (Herbicidal ratio of 90% or more (almost completely withered))	4 (Herbicidal ratio of 70% or more and less than 90%)	5 (Herbicidal ratio of 90% or more (almost completely withered))	5 (Herbicidal ratio of 90% or more (almost completely withered))	5 (Herbicidal ratio of 90% or more (almost completely withered))	5 (Herbicidal ratio of 90% or more (almost completely withered))	3 (Herbicidal ratio of 40% or more and less than 70%)	
CN(c1nnc2c(C(=O)Nc3nnco3)ccc(C(F)(F)F)n12)C1CCCCC1 [1-123]	4 (Herbicidal ratio of 70% or more and less than 90%)	4 (Herbicidal ratio of 70% or more and less than 90%)	4 (Herbicidal ratio of 70% or more and less than 90%)	0 (Herbicidal ratio of 5% or less (almost no effect))	3 (Herbicidal ratio of 40% or more and less than 70%)	4 (Herbicidal ratio of 70% or more and less than 90%)	4 (Herbicidal ratio of 70% or more and less than 90%)	5 (Herbicidal ratio of 90% or more (almost completely withered))	3 (Herbicidal ratio of 40% or more and less than 70%)	4 (Herbicidal ratio of 70% or more and less than 90%)	4 (Herbicidal ratio of 70% or more and less than 90%)	0 (Herbicidal ratio of 5% or less (almost no effect))	
CCN(CC)c1nnc2c(C(=O)Nc3nnc(C)o3)ccc(C(F)(F)F)n12 [1-135]	2 (Herbicidal ratio of 20% or more and less than 40%)	5 (Herbicidal ratio of 90% or more (almost completely withered))	4 (Herbicidal ratio of 70% or more and less than 90%)	1 (Herbicidal ratio of 5% or more and less than 20%)	1 (Herbicidal ratio of 5% or more and less than 20%)	3 (Herbicidal ratio of 40% or more and less than 70%)	3 (Herbicidal ratio of 40% or more and less than 70%)	5 (Herbicidal ratio of 90% or more (almost completely withered))	3 (Herbicidal ratio of 40% or more and less than 70%)	4 (Herbicidal ratio of 70% or more and less than 90%)	4 (Herbicidal ratio of 70% or more and less than 90%)	1 (Herbicidal ratio of 5% or more and less than 20%)	
CC[S+]([O-])c1nnc2c(C(=O)Nc3nnnn3C)ccc(C(F)(F)F)n12 (stereo not drawn) [2-031]	5 (Herbicidal ratio of 90% or more (almost completely withered))	5 (Herbicidal ratio of 90% or more (almost completely withered))	5 (Herbicidal ratio of 90% or more (almost completely withered))										J (Alopecurus myosuroides) herbicidal effect grade (Alopecurus myosuroides; 320 g/ha): 4 (Herbicidal ratio of 70% or more and less than 90%); R (Veronica persica) herbicidal effect grade (Veronica persica; 320 g/ha): 5 (Herbicidal ratio of 90% or more (almost completely withered)); N (Amaranthus retroflexus) herbicidal effect grade (Amaranthus retroflexus; 320 g/ha): 5 (Herbicidal ratio of 90% or more (almost completely withered)); M (Abutilon theophrasti) herbicidal effect grade (Abutilon theophrasti; 320 g/ha): 5 (Herbicidal ratio of 90% or more (almost completely withered)); O (Chenopodium album) herbicidal effect grade (Chenopodium album; 320 g/ha): 5 (Herbicidal ratio of 90% or more (almost completely withered)); G (Setaria viridis) herbicidal effect grade (Setaria viridis; 320 g/ha): 5 (Herbicidal ratio of 90% or more (almost completely withered)); F (Digitaria ciliaris) herbicidal effect grade (Digitaria ciliaris; 320 g/ha): 5 (Herbicidal ratio of 90% or more (almost completely withered)); P (Stellaria media) herbicidal effect grade (Stellaria media; 320 g/ha): 5 (Herbicidal ratio of 90% or more (almost completely withered)); L (Apera spica-venti.) herbicidal effect grade (Apera spica-venti.; 320 g/ha): 5 (Herbicidal ratio of 90% or more (almost completely withered))
